# Reference: US20120040914A1, “ENHANCING EFFECTIVENESS OF GLIAL CANCER THERAPIES” (priority 2010, published 2012)
# Columns and labels:
# [1] = test system: putative mAR in A172 human glioblastoma cells; settings: unlabeled DHT as displacer, relative to T-BSA incubated A172 cells
# From the text: The population histograms depict the frequency distribution of the cells labeled with a fluorescently tagged, BSA-conjugated testosterone (Testosterone-BSA-FITC, abbreviated as T-BSA), or T-BSA in the presence of unlabeled DHT, serving as the “displacer”. […] Also note that the x-axis is on a log scale.
# C6 glioma cells = assay: salinomycin sensitivity, cell viability by Calcein-am assay; format: cell-based; settings: 10 microM TBSA, 48 hrs, leftward shift of the concentration response
# Method: C6 glioma cells were treated with increasing concentrations of the cancer therapeutic, salinamycin, a drug with a high profile of selectivity for cancer stem cells. […] The data are presented as a percentage of cell viability seen in non-TBSA/salinamycin treated cells. The group labeled as Triton-X serves as our cell death-inducing control.
# [2] = test system: A172 human glioblastoma cells; assay: sensitivity to ionizing radiation, Calcein-am assay; format: cell-based; settings: total dose of 5 Gy at 6.3 Gy/min, 6 hrs after radiation
# Method: Cell viability was measured using the Calcein-am assay following 6 hrs after the administration of the dose of ionizing radiation. The data are presented as a percentage of cell viability seen in the non-radiated (black bars) or radiated (checkered bars) in the absence of T-BSA.
# hippocampal HT-22 cells = assay: glutamate-induced cytotoxicity, Calcein-am assay; format: cell-based
# [3] = test system: Temozolomide-resistant T98g human glioblastoma cells; assay: sensitivity to ionizing radiation, Calcein-am assay; format: cell-based
# [4] = test system: A172 human glioblastoma cell line; assay: cells; settings: A 172, read-out: reduction in cell viability (calcein fluorescence)
molecule,measurement,setting,value
"C[C@]12CCC(=O)C[C@@H]1CC[C@@H]1[C@@H]2CC[C@]2(C)[C@@H](O)CC[C@@H]12 [DHT, Dihydrotestosterone]","displacement of Testosterone-BSA-FITC (T-BSA) binding, fluorescence intensity",[1],clear leftward shift of fluorescence intensity
"TBSA: BSA-conjugated testosterone, membrane impermeable androgen, ligand/activator of the membrane androgen receptor (mAR)",effect on sensitivity to salinamycin (concentration response of cell viability),C6 glioma cells,increased the sensitivity of the cells to salinamycin
same,sensitization to ionizing radiation (cell viability),[2],enhanced the sensitivity of the A172 glioblastoma cells to the cytotoxic effects of ionizing radiation
same,"cell viability, by itself","hippocampal HT-22 cells; TBSA alone, Calcein-am assay",had no effect on cell viability
same,effect on glutamate-induced cell death,hippocampal HT-22 cells; TBSA plus glutamate,protected against glutamate-induced cytotoxicity
same,sensitization to ionizing radiation (cell viability),"[3]; 5 Gy, 100 nM-40 microM TBSA, 6 hr or 24 hr post radiation",ineffective at sensitizing the cells to ionizing radiation
same,sensitization to ionizing radiation (cell viability),[3]; 10 Gy,effective at sensitizing these cells to ionizing radiation
same,lowest concentration at which the sensitizing effect was noted,[3]; 20 Gy,1 µM
"Cn1nnc2c(C(N)=O)ncn2c1=O [TMZ, Temozolomide]",cytotoxicity at 5000 µM,[4],~35%
